{"source": "patent US12319652B2", "about": "“Salts and solid forms of (R)-1-(5-methoxy-1H-indol-1-yl)-N,N-dimethylpropan-2-amine” (priority 2021, dated 2025)", "key": {"[1]": {"test": "Binary solvent evaporation crystallization of Compound 1 HCl", "procedure": "A binary solvent evaporation crystallization panel was performed. Separate portions of Compound 1 HCl 50 mg) were dissolved in a primary solvent of water (500 μl per sample) and a secondary solvent—one of either acetone (250 μl, A), acetonitrile (250 μl, B), THF (250 μl, C) and methanol (250 μl, D).\nEach vial was capped with aluminium foil, pieced and allowed to stand undisturbed until the evaporation was completed. Experimental details are included in Table 109."}, "[2]": {"test": "Qualitative solubility screen of Compound 1 HCl", "type": "physicochemical", "procedure": "The qualitative solubility screen was carried out to determine the range of solvents incorporated into future suspension equilibration panels.\nProducts that crystallized were centrifuged and analyzed as wet pellet by XRPD, dried under reduced pressure and re-analyzed by XRPD, with selected samples further analyzed by TGA and ^1H NMR spectroscopy."}, "[3]": {"test": "Qualitative solubility screen of Compound 1 Fumarate in solvents", "type": "physicochemical", "procedure": "The salt compound also dissolved in refluxing methylisobutyketone (MIBK) at 15 vol concentration. Consistent with Example 1, the solutions formed were cooled and the IPA, 2-MeTHF and MIBK solutions yielded solid material on cooling. The solid product obtained from MIBK was analyzed by XRPD, TG and ^1H NMR—the XRPD diffractogram is provided as FIG. 1 and the ^1H NMR spectrum is provided as FIG. 2.\nCompound 1·Fumarate was soluble in many of the common solvents assessed (predominantly Classes 2 and 3 solvents) at 5.0 vol (200 mg/ml), 10.0 vol, 15.0 vol and 20.0 vol (refer to Table). Solids were isolated on cooling from isopropanol (IPA, 5.0 vol), 2-MeTHF (5.0 vol) and methylisobutylketone (MIBK, 15.0 vol). The products from IPA and 2-MeTHF were gums, and not pursued further.\nCompound 1 Fumarate (batch 1, 25 mg, 1 wt) was weighed out in 20 separate vials to qualitatively examine the solubility in an array of diverse solvents. […] If insoluble at 5 vol, the solvent quantity was increased to 10 vol, 15 vol and 20 vol of the respective solvent. The suspensions that occurred upon cooling down were centrifuged and the solvent wet pellets were analysed by XRPD. The insoluble suspensions were additionally worked up for XRPD analysis. The resultant powder patterns were subsequently cross-referenced against the input supplied material."}, "[4]": {"test": "Heat-up/cool down (HUCD) crystallization of compound 1 Fumarate in different solvents"}, "[5]": {"conditions": "Ethanol/Water (15% v/v, 0.5 aw), 5 vol"}}}
{"smiles": "COc1ccc2c(ccn2C[C@@H](C)N(C)C)c1.Cl", "note": "[Compound 1 HCl]", "values": [{"measurement": "Observations (t = 14 days @ ambient)", "setting": "[1]; A: Water 10.0 vol + Acetone 250 μL", "value": "Solid"}, {"measurement": "Observations (t = 14 days @ ambient)", "setting": "[1]; B: Water 10.0 vol + Acetonitrile 250 μL", "value": "Solid"}, {"measurement": "Observations (t = 14 days @ ambient)", "setting": "[1]; C: Water 10.0 vol + THF 250 μL", "value": "Solid"}, {"measurement": "Observations (t = 14 days @ ambient)", "setting": "[1]; D: Water 10.0 vol + Methanol 250 μL", "value": "Solid"}, {"measurement": "XRPD (dried pellet)", "setting": "[2]; 2-Propanol", "value": "Form A"}, {"measurement": "XRPD (moist pellet)", "setting": "[2]; 2-Propanol", "value": "Paste"}, {"measurement": "Solid on cooling?", "setting": "[2]; 2-Propanol, 10 vol", "value": "✓"}, {"measurement": "Solution at reflux", "setting": "[2]; 2-Propanol, 10 vol", "value": "✓"}, {"measurement": "Solution at reflux", "setting": "[2]; 2-Propanol, 15 vol", "value": "✓"}, {"measurement": "XRPD (dried pellet)", "setting": "[2]; Acetone", "value": "Form A"}, {"measurement": "XRPD (moist pellet)", "setting": "[2]; Acetone", "value": "Form A"}, {"measurement": "XRPD (moist pellet)", "setting": "[2]; Acetone/Water (5% v/v, 0.5 aw)", "value": "Solution"}, {"measurement": "Solid on cooling", "setting": "[2]; Acetone/Water (5% v/v, 0.5 aw), 5 vol", "value": "✓"}, {"measurement": "Solution at reflux", "setting": "[2]; Acetone/Water (5% v/v, 0.5 aw), 10 vol", "value": "✓"}, {"measurement": "XRPD (dried pellet)", "setting": "[2]; Chlorobenzene", "value": "Form A"}, {"measurement": "XRPD (moist pellet)", "setting": "[2]; Chlorobenzene", "value": "Paste"}, {"measurement": "XRPD (moist pellet)", "setting": "[2]; DCM", "value": "Form A"}, {"measurement": "XRPD (moist pellet)", "setting": "[2]; EtOAc", "value": "Form A"}, {"measurement": "XRPD (dried pellet)", "setting": "[2]; EtOH", "value": "Form A"}, {"measurement": "XRPD (moist pellet)", "setting": "[2]; EtOH", "value": "Form A"}, {"measurement": "Solid on cooling", "setting": "[2]; EtOH, 15 vol", "value": "✓"}, {"measurement": "Solid on cooling", "setting": "[2]; EtOH, 20 vol", "value": "✓"}, {"measurement": "XRPD (moist pellet)", "setting": "[2]; Ethanol/Water (15% v/v, 0.5 aw)", "value": "Solution"}, {"measurement": "Solid on cooling", "setting": "[2]; [5]", "value": "✓"}, {"measurement": "Solution at reflux", "setting": "[2]; [5]", "value": "✓"}, {"measurement": "Solution at 20° C.", "setting": "[2]; Ethanol/Water (15% v/v, 0.5 aw), 10 vol", "value": "✓"}, {"measurement": "XRPD (moist pellet)", "setting": "[2]; Ethyl formate", "value": "Form A"}, {"measurement": "XRPD (moist pellet)", "setting": "[2]; Heptane", "value": "Form A"}, {"measurement": "XRPD (moist pellet)", "setting": "[2]; Isopropanol/Water (12%, v/v, 0.5 aw)", "value": "Solution"}, {"measurement": "Solid on cooling", "setting": "[2]; Isopropanol/Water (12%, v/v, 0.5 aw), 5 vol", "value": "✓"}, {"measurement": "Solution at reflux", "setting": "[2]; Isopropanol/Water (12%, v/v, 0.5 aw), 10 vol", "value": "✓"}, {"measurement": "XRPD (dried pellet)", "setting": "[2]; MEK", "value": "Form A"}, {"measurement": "XRPD (moist pellet)", "setting": "[2]; MEK", "value": "Paste"}, {"measurement": "XRPD (moist pellet)", "setting": "[2]; MeCN", "value": "Form A"}, {"measurement": "Solid on cooling", "setting": "[2]; MeCN, 15 vol", "value": "✓"}, {"measurement": "Solid on cooling", "setting": "[2]; MeCN, 20 vol", "value": "✓"}, {"measurement": "XRPD (moist pellet)", "setting": "[2]; MeOH", "value": "Solution"}, {"measurement": "Solution at reflux", "setting": "[2]; MeOH, 10 vol", "value": "✓"}, {"measurement": "XRPD (dried pellet)", "setting": "[2]; MeTHF", "value": "Form A"}, {"measurement": "XRPD (moist pellet)", "setting": "[2]; MeTHF", "value": "Paste"}, {"measurement": "XRPD (dried pellet)", "setting": "[2]; Methyl acetate", "value": "Form A"}, {"measurement": "XRPD (moist pellet)", "setting": "[2]; Methyl acetate", "value": "Paste"}, {"measurement": "XRPD (dried pellet)", "setting": "[2]; Nitromethane", "value": "Form A"}, {"measurement": "XRPD (moist pellet)", "setting": "[2]; Nitromethane", "value": "Paste"}, {"measurement": "Solid on cooling?", "setting": "[2]; Nitromethane, 10 vol", "value": "✓"}, {"measurement": "Solution at 40° C.", "setting": "[2]; Nitromethane, 15 vol", "value": "✓"}, {"measurement": "Solution at reflux", "setting": "[2]; Nitromethane, 15 vol", "value": "✓"}, {"measurement": "XRPD (moist pellet)", "setting": "[2]; TBME", "value": "Form A"}, {"measurement": "XRPD (dried pellet)", "setting": "[2]; Toluene", "value": "Form A"}, {"measurement": "XRPD (moist pellet)", "setting": "[2]; Toluene", "value": "Paste"}, {"measurement": "XRPD (moist pellet)", "setting": "[2]; Water", "value": "Solution"}, {"measurement": "Solution at 20° C.", "setting": "[2]; Water, 5 vol", "value": "✓"}, {"measurement": "Qualitative solubility", "setting": "[2]; polar and aqueous solvents at temperature, panel of 22 solvents", "value": "soluble"}, {"measurement": "Qualitative solubility", "setting": "[2]; polar solvents and solvents with high water activity", "value": "readily soluble"}]}
{"smiles": "COc1ccc2c(ccn2C[C@@H](C)[NH+](C)C)c1.O=C(O)/C=C/C(=O)O", "note": "[Compound 1 fumarate, (R)-1-(5-methoxy-1H-indol-1-yl)-N,N-dimethylpropan-2-amine fumarate]", "values": [{"measurement": "Solid on cooling", "setting": "[3]; 2-MeTHF, 5 vol", "value": "Yes"}, {"measurement": "Solution at reflux", "setting": "[3]; 2-MeTHF, 5 vol (200 mg/ml), fumarate", "value": "✓"}, {"measurement": "Solution at reflux", "setting": "[3]; 2-MeTHF, 5 vol (200 mg/ml), listed as fumarate salt, fumarate", "value": "soluble"}, {"measurement": "Solution at 20° C.", "setting": "[3]; Acetone, 5 vol (200 mg/ml), fumarate", "value": "✓"}, {"measurement": "Solution at 20° C.", "setting": "[3]; Acetone, 5 vol (200 mg/ml), listed as fumarate salt, fumarate", "value": "soluble"}, {"measurement": "Solution at 20° C.", "setting": "[3]; Butanol, 5 vol (200 mg/ml), fumarate", "value": "✓"}, {"measurement": "Solution at 20° C.", "setting": "[3]; Butanol, 5 vol (200 mg/ml), listed as fumarate salt, fumarate", "value": "soluble"}, {"measurement": "Solution at 20° C.", "setting": "[3]; DCM, 5 vol (200 mg/ml), fumarate", "value": "✓"}, {"measurement": "Solution at 20° C.", "setting": "[3]; DCM, 5 vol (200 mg/ml), listed as fumarate salt, fumarate", "value": "soluble"}, {"measurement": "Solid on cooling", "setting": "[3]; Dioxane, 5 vol", "value": "No"}, {"measurement": "Solution at 40° C.", "setting": "[3]; Dioxane, 5 vol (200 mg/ml), fumarate", "value": "✓"}, {"measurement": "Solution at 40° C.", "setting": "[3]; Dioxane, 5 vol (200 mg/ml), listed as fumarate salt, fumarate", "value": "soluble"}, {"measurement": "Solution at 20° C.", "setting": "[3]; Ethanol, 5 vol (200 mg/ml), fumarate", "value": "✓"}, {"measurement": "Solution at 20° C.", "setting": "[3]; Ethanol, 5 vol (200 mg/ml), listed as fumarate salt, fumarate", "value": "soluble"}, {"measurement": "Solid on cooling", "setting": "[3]; IPA, 5 vol", "value": "Yes"}, {"measurement": "Solution at 40° C.", "setting": "[3]; IPA, 5 vol (200 mg/ml), fumarate", "value": "✓"}, {"measurement": "Solution at 40° C.", "setting": "[3]; IPA, 5 vol (200 mg/ml), listed as fumarate salt, fumarate", "value": "soluble"}, {"measurement": "Solution at 20° C.", "setting": "[3]; MEK, 5 vol (200 mg/ml), fumarate", "value": "✓"}, {"measurement": "Solution at 20° C.", "setting": "[3]; MEK, 5 vol (200 mg/ml), listed as fumarate salt, fumarate", "value": "soluble"}, {"measurement": "Solid on cooling", "setting": "[3]; MIBK, 10, 15 & 20 vol", "value": "Yes"}, {"measurement": "Solution at reflux", "setting": "[3]; MIBK, 10, 15 & 20 vol", "value": "✓"}, {"measurement": "Dissolution in refluxing methylisobutyketone (MIBK)", "setting": "[3]; MIBK, reflux, 15 vol concentration", "value": "dissolved"}, {"measurement": "Solution at 20° C.", "setting": "[3]; MeCN, 5 vol (200 mg/ml), fumarate", "value": "✓"}, {"measurement": "Solution at 20° C.", "setting": "[3]; MeCN, 5 vol (200 mg/ml), listed as fumarate salt, fumarate", "value": "soluble"}, {"measurement": "Solution at 20° C.", "setting": "[3]; Methanol, 5 vol (200 mg/ml), fumarate", "value": "✓"}, {"measurement": "Solution at 20° C.", "setting": "[3]; Methanol, 5 vol (200 mg/ml), listed as fumarate salt, fumarate", "value": "soluble"}, {"measurement": "Solution at 20° C.", "setting": "[3]; THF, 5 vol (200 mg/ml), fumarate", "value": "✓"}, {"measurement": "Solution at 20° C.", "setting": "[3]; THF, 5 vol (200 mg/ml), listed as fumarate salt, fumarate", "value": "soluble"}, {"measurement": "Solution at 20° C.", "setting": "[3]; Water, 5 vol (200 mg/ml), fumarate", "value": "✓"}, {"measurement": "Solution at 20° C.", "setting": "[3]; Water, 5 vol (200 mg/ml), listed as fumarate salt, fumarate", "value": "soluble"}, {"measurement": "Form XRPD (oven dried)", "setting": "[4]; Heptane (5 vol) + Dichloromethane 160 μl", "value": "Pattern 1"}, {"measurement": "Form XRPD (oven dried)", "setting": "[4]; Heptane (5 vol) + Dioxane 240 μl", "value": "Pattern 1"}, {"measurement": "Observations (t = 3 d @ 20° C.)", "setting": "[4]; Heptane (5 vol) + Ethanol 180 μl", "value": "suspension"}, {"measurement": "Observations (t = 0 @ T = 20° C.)", "setting": "[4]; Heptane (5 vol) + Methylethyl ketone 100 μl", "value": "suspension"}, {"measurement": "Form XRPD (oven dried)", "setting": "[4]; Heptane (5 vol) + tert-Butylmethyl ether 300 μl", "value": "Pattern 1"}, {"measurement": "Observations (t = 3 d @ 20° C.)", "setting": "[4]; Water (5 vol) + Ethanol 80 μl", "value": "solution"}]}
